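1) Cells in 96-well plates. 2) Compound, 48 h, 5 concentrations. 3) Linear interpolation between surrounding doses. 4) Unreached endpoint = highest concentration. GI50: concentration for 50% inhibition of growth.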 Calls of active or inactive are those of the source. Rule as the data show it: active = GI50 up to about 1.1 µM and inactive = higher.
How the values were obtained:
Assay in all cases: NCI tumour cell line growth inhibition, 48 h
DLD-1 = test system: DLD-1
DMS-114 = test system: DMS-114
HOP-18 = test system: HOP-18
KM-20L2 = test system: KM-20L2
LXFL 529 = test system: LXFL 529
M19-MEL = test system: M19-MEL
RXF 631 = test system: RXF 631
SNB-78 = test system: SNB-78
XF498 = test system: XF498

SMILES	GI50 (DLD-1)	GI50 (DMS-114)	GI50 (HOP-18)	GI50 (KM-20L2)	GI50 (LXFL 529)	GI50 (M19-MEL)	GI50 (RXF 631)	GI50 (SNB-78)	GI50 (XF498)
OC(CCNC12CC3CC(CC(C3)C1)C2)c1ccccc1 (configuration not stated)	99.8 µM (inactive)	57.9 µM (inactive)	> 100 µM (inactive)	49.3 µM (inactive)	> 100 µM (inactive)	> 100 µM (inactive)	> 100 µM (inactive)	> 100 µM (inactive)	> 100 µM (inactive)
O=C(/C=C\c1ccc(/C=C/C(=O)Nc2cccc(C3=NCCCN3)c2)cc1)Nc1cccc(C2=NCCCN2)c1	> 100 µM (inactive)	–	> 100 µM (inactive)	> 56.4 µM (inactive)	–	> 100 µM (inactive)	–	> 100 µM (inactive)	< 0.01 µM (active)
Cc1ccc(NC(=O)CCC(=O)C(C#N)c2ccccc2)cc1C (configuration not stated)	> 100 µM (inactive)	> 100 µM (inactive)	> 100 µM (inactive)	> 100 µM (inactive)	> 100 µM (inactive)	–	> 100 µM (inactive)	> 100 µM (inactive)	> 100 µM (inactive)
COc1cccc(NC(=O)/C(CS(=O)(=O)CCC(C(C)=O)C(C)=O)=N/NC(C)(C)C)c1	> 100 µM (inactive)	> 100 µM (inactive)	42.9 µM (inactive)	> 100 µM (inactive)	> 100 µM (inactive)	–	–	> 100 µM (inactive)	–
COc1cc(C2C(Cl)C(=O)N2n2cnc3ccccc3c2=O)cc(OC)c1OC (configuration not stated)	> 100 µM (inactive)	43.4 µM (inactive)	> 100 µM (inactive)	64.3 µM (inactive)	> 100 µM (inactive)	> 100 µM (inactive)	–	> 100 µM (inactive)	> 100 µM (inactive)
O=S1(=O)OCCOS(=O)(=O)C1Br	> 100 µM (inactive)	> 100 µM (inactive)	–	–	> 100 µM (inactive)	> 100 µM (inactive)	> 100 µM (inactive)	> 100 µM (inactive)	–
CCCCCCCC(=O)OC[C@H](C[As](=O)(O)O)OC(=O)CCCCCCC	14.1 µM (inactive)	6.84 µM (inactive)	22 µM (inactive)	16.6 µM (inactive)	9.55 µM (inactive)	13.3 µM (inactive)	–	14 µM (inactive)	–
COC(=O)CCC(=O)Nc1ccc(Cl)cc1C	> 100 µM (inactive)	0.859 µM (active)	> 100 µM (inactive)	> 48.4 µM (inactive)	32.1 µM (inactive)	> 100 µM (inactive)	> 29.9 µM (inactive)	98.4 µM (inactive)	13.5 µM (inactive)
O=C(N/C(=C\c1ccc([N+](=O)[O-])cc1)c1nc2ccccc2[nH]1)c1ccccc1	> 100 µM (inactive)	> 100 µM (inactive)	> 100 µM (inactive)	> 100 µM (inactive)	39.4 µM (inactive)	> 100 µM (inactive)	43.7 µM (inactive)	> 100 µM (inactive)	–
C#CC1(O)CC(c2ccccc2)N(C)C(c2ccccc2)C1 (configuration not stated)	–	> 100 µM (inactive)	–	> 100 µM (inactive)	> 100 µM (inactive)	> 100 µM (inactive)	> 100 µM (inactive)	> 100 µM (inactive)	–
O=C1CC2CCCCC2=C1O (configuration not stated)	> 100 µM (inactive)	> 100 µM (inactive)	–	–	> 100 µM (inactive)	> 100 µM (inactive)	> 100 µM (inactive)	> 100 µM (inactive)	> 100 µM (inactive)
CN1C(=O)CCC1(O)C1C=CC=CC1 (configuration not stated)	> 100 µM (inactive)	> 100 µM (inactive)	–	> 100 µM (inactive)	> 100 µM (inactive)	> 100 µM (inactive)	> 100 µM (inactive)	> 100 µM (inactive)	> 100 µM (inactive)
NC(=S)Nc1nnc(-c2ccc(-c3nnc(NC(N)=S)o3)cc2)o1	> 100 µM (inactive)	> 100 µM (inactive)	> 100 µM (inactive)	> 100 µM (inactive)	> 100 µM (inactive)	> 100 µM (inactive)	–	> 100 µM (inactive)	–
Cc1c2cc[n+](C)cc2c(C)c2c1sc1ccccc12	3.05 µM (inactive)	0.395 µM (active)	9.14 µM (inactive)	2.04 µM (inactive)	0.456 µM (active)	1.1 µM (active)	0.194 µM (active)	0.855 µM (active)	0.564 µM (active)
Nc1c(Cl)ncnc1NCCCNc1ncnc(Cl)c1N	> 100 µM (inactive)	> 100 µM (inactive)	> 100 µM (inactive)	> 100 µM (inactive)	> 100 µM (inactive)	> 100 µM (inactive)	–	> 100 µM (inactive)	> 100 µM (inactive)
O=[N+]([O-])c1ccccc1S(=O)(=O)c1ccccc1	> 100 µM (inactive)	64 µM (inactive)	> 100 µM (inactive)	> 100 µM (inactive)	> 100 µM (inactive)	39.4 µM (inactive)	18.5 µM (inactive)	–	0.321 µM (active)
Cc1ccc(S(=O)(=O)OC2CSSCC2OS(=O)(=O)c2ccc(C)cc2)cc1 (configuration not stated)	11 µM (inactive)	11.9 µM (inactive)	17.4 µM (inactive)	14 µM (inactive)	11.4 µM (inactive)	13.4 µM (inactive)	13.6 µM (inactive)	20 µM (inactive)	–
Cc1ccc(NC(=O)CC2Sc3ccccc3NC2=O)cc1C (configuration not stated)	> 100 µM (inactive)	41.9 µM (inactive)	> 100 µM (inactive)	> 100 µM (inactive)	49 µM (inactive)	> 100 µM (inactive)	–	> 100 µM (inactive)	> 100 µM (inactive)
CC(=O)Nc1ccc(-c2nnc(SCC(=O)Nc3cccc([N+](=O)[O-])c3)o2)cc1	12.8 µM (inactive)	10.2 µM (inactive)	21.1 µM (inactive)	17.8 µM (inactive)	2.99 µM (inactive)	15.1 µM (inactive)	–	18 µM (inactive)	–
COC(=O)CCC1(NS(=O)(=O)c2ccc(C)cc2)CCC(C(C)(C)C)CC1 (configuration not stated)	17 µM (inactive)	4.58 µM (inactive)	–	–	15 µM (inactive)	11.4 µM (inactive)	15.9 µM (inactive)	21.3 µM (inactive)	14.8 µM (inactive)
COC(=O)C1[C@H](c2ccc3c(c2)OCO3)OC(=O)[C@]1(C(=O)OC)C(=O)c1ccc(OC)c(OC)c1 (some centres not stated)	17.4 µM (inactive)	–	> 100 µM (inactive)	56 µM (inactive)	41.5 µM (inactive)	51.6 µM (inactive)	–	56.8 µM (inactive)	81.8 µM (inactive)
OC(c1ccccc1)C1CC2C=CC1C2 (configuration not stated)	> 100 µM (inactive)	> 100 µM (inactive)	–	–	> 100 µM (inactive)	> 100 µM (inactive)	> 100 µM (inactive)	> 100 µM (inactive)	> 100 µM (inactive)
C/C=C/CC(C)[C@@H](O)[C@H](NC)C(=O)O (some centres not stated)	> 100 µM (inactive)	> 100 µM (inactive)	> 100 µM (inactive)	> 100 µM (inactive)	> 100 µM (inactive)	> 100 µM (inactive)	–	–	–
CC(OC1CC(=O)CC2C(=O)C=CC(=O)C12)c1ccccc1 (configuration not stated)	12.9 µM (inactive)	8.05 µM (inactive)	18.2 µM (inactive)	17.3 µM (inactive)	7.33 µM (inactive)	16.1 µM (inactive)	–	19.5 µM (inactive)	15.8 µM (inactive)
COC(=O)[C@]12CC=C3O[C@@H]4OC5(CCCCC5)O[C@@H]4[C@H]3C1C(=O)C=CC2=O (some centres not stated)	15.5 µM (inactive)	17.5 µM (inactive)	18.5 µM (inactive)	19.7 µM (inactive)	9.84 µM (inactive)	16 µM (inactive)	–	18.8 µM (inactive)	12.6 µM (inactive)
N=C(N)SCCc1cn2ccccc2n1	7.03 µM (inactive)	> 100 µM (inactive)	> 100 µM (inactive)	–	–	> 100 µM (inactive)	–	> 100 µM (inactive)	> 100 µM (inactive)

— ChEMBL document CHEMBL1201862, “PubChem BioAssay data set” (2004)
